Measurements reported in ChEMBL document CHEMBL1201862, “PubChem BioAssay data set” (2004).
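A five-concentration, 48-hour dose response in 96-well plates underlies each endpoint, interpolated linearly between surrounding concentrations. GI50: concentration for 50% inhibition of growth.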 Activity calls are given as the source filed them. Cut-off read from the data, not from the text of the source: active = GI50 up to about 1.1 µM and inactive = higher.

Tests used:
Experiment in all cases: growth of human tumour cells (NCI), 48 h
786-0 = tested on: 786-0
A498 = tested on: A498
A549 = tested on: A549
ACHN = tested on: ACHN
BT-549 = tested on: BT-549
CAKI-1 = tested on: CAKI-1
CCRF-CEM = tested on: CCRF-CEM
COLO 205 = tested on: COLO 205
DU-145 = tested on: DU-145
EKVX = tested on: EKVX
HCC 2998 = tested on: HCC 2998
HCT-116 = tested on: HCT-116
HCT-15 = tested on: HCT-15
HL-60 = tested on: HL-60
HOP-62 = tested on: HOP-62
HOP-92 = tested on: HOP-92
HT-29 = tested on: HT-29
Hs-578T = tested on: Hs-578T
IGROV-1 = tested on: IGROV-1
K562 = tested on: K562
KM12 = tested on: KM12
LOX IMVI = tested on: LOX IMVI
M14 = tested on: M14
MCF7 = tested on: MCF7
MDA-MB-231 = tested on: MDA-MB-231
MDA-MB-435 = tested on: MDA-MB-435
MDA-N = tested on: MDA-N
MOLT-4 = tested on: MOLT-4
Malme-3M = tested on: Malme-3M
NCI-H226 = tested on: NCI-H226
NCI-H23 = tested on: NCI-H23
NCI-H460 = tested on: NCI-H460
NCI-H522 = tested on: NCI-H522
NCI/ADR-RES = tested on: NCI/ADR-RES
OVCAR-3 = tested on: OVCAR-3
OVCAR-4 = tested on: OVCAR-4
OVCAR-5 = tested on: OVCAR-5
OVCAR-8 = tested on: OVCAR-8
PC-3 = tested on: PC-3
RPMI-8226 = tested on: RPMI-8226
RXF 393 = tested on: RXF 393
SF-268 = tested on: SF-268
SF-295 = tested on: SF-295
SF-539 = tested on: SF-539
SK-MEL-28 = tested on: SK-MEL-28
SK-MEL-2 = tested on: SK-MEL-2
SK-MEL-5 = tested on: SK-MEL-5
SK-OV-3 = tested on: SK-OV-3
SN12C = tested on: SN12C
SNB-19 = tested on: SNB-19
SNB-75 = tested on: SNB-75
SR = tested on: SR
SW-620 = tested on: SW-620
T47D = tested on: T47D
TK-10 = tested on: TK-10
UACC-257 = tested on: UACC-257
UACC-62 = tested on: UACC-62
UO-31 = tested on: UO-31
U-251 = tested on: U-251

In the case of CCOc1cc(NC(C)=O)ccc1C(=O)NN1C(=O)C(Cl)C1c1ccco1 (stereo unspecified), the GI50 (786-0) is reported as 16.1 µM (inactive), the GI50 (A498) is reported as 16.4 µM (inactive) and the GI50 (A549) is reported as 18.7 µM (inactive). For the same compound, the GI50 (ACHN) was 15.7 µM (inactive), the GI50 (BT-549) was 13.5 µM (inactive) and the GI50 (CAKI-1) was 17.1 µM (inactive). The GI50 (CCRF-CEM) was 4.58 µM (inactive), the GI50 (COLO 205) was 17.2 µM (inactive) and the GI50 (DU-145) was 17.3 µM (inactive). The GI50 (EKVX) was 17.9 µM (inactive), the GI50 (HCC 2998) was 16 µM (inactive) and the GI50 (HCT-116) was 20.7 µM (inactive). For the same compound, the GI50 (HCT-15) was 19.1 µM, the GI50 (HL-60) was 18.4 µM (inactive) and the GI50 (HOP-62) was 17.9 µM (inactive). The GI50 (HOP-92) was 19.1 µM (inactive), the GI50 (HT-29) was 19.1 µM (inactive) and the GI50 (Hs-578T) was 21.8 µM (inactive). For the same compound, the GI50 (IGROV-1) was 13.1 µM (inactive), the GI50 (K562) was 19.3 µM (inactive) and the GI50 (KM12) was 18.5 µM (inactive). For the same compound, the GI50 (LOX IMVI) was 3.99 µM (inactive), the GI50 (M14) was 15.4 µM (inactive) and the GI50 (MCF7) was 13.4 µM (inactive). The GI50 (MDA-MB-231) was 16.6 µM (inactive), the GI50 (MDA-MB-435) was 15 µM (inactive) and the GI50 (MDA-N) was 14.4 µM (inactive). The GI50 (MOLT-4) was 7.01 µM (inactive), the GI50 (Malme-3M) was 11.7 µM (inactive) and the GI50 (NCI-H226) was 18.5 µM (inactive). The GI50 (NCI-H23) was 16.6 µM (inactive), the GI50 (NCI-H460) was 17.3 µM (inactive) and the GI50 (NCI-H522) was 10.6 µM (inactive). The GI50 (NCI/ADR-RES) was 33.7 µM (inactive), the GI50 (OVCAR-3) was 16.9 µM (inactive) and the GI50 (OVCAR-4) was 14.9 µM (inactive). The GI50 (OVCAR-5) was 20.6 µM (inactive), the GI50 (OVCAR-8) was 43.5 µM (inactive) and the GI50 (PC-3) was 17.9 µM (inactive). For the same compound, the GI50 (RPMI-8226) was 18.3 µM (inactive), the GI50 (RXF 393) was 12.3 µM (inactive) and the GI50 (SF-268) was 16.1 µM (inactive). The GI50 (SF-295) was 16 µM (inactive), the GI50 (SF-539) was 14.9 µM (inactive) and the GI50 (SK-MEL-28) was 22.6 µM (inactive). The GI50 (SK-MEL-2) was 18.6 µM (inactive), the GI50 (SK-MEL-5) was 13.3 µM (inactive) and the GI50 (SK-OV-3) was 18.3 µM (inactive). For the same compound, the GI50 (SN12C) was 14.5 µM (inactive), the GI50 (SNB-19) was 17 µM (inactive) and the GI50 (SNB-75) was 13.8 µM (inactive). For the same compound, the GI50 (SR) was 13.9 µM (inactive), the GI50 (SW-620) was 32.3 µM (inactive) and the GI50 (T47D) was 16.7 µM (inactive). For the same compound, the GI50 (TK-10) was 17.4 µM (inactive), the GI50 (UACC-257) was 15.7 µM (inactive) and the GI50 (UACC-62) was 12.6 µM (inactive). The GI50 (UO-31) was 2.86 µM (inactive).

O=C1c2c(Br)sc(Br)c2[C@@H](NC(=O)C(F)(F)F)C1Br (stereo partly specified) was tested, and the GI50 (786-0) was 2.13 µM (inactive), the GI50 (A498) was 15.3 µM (inactive) and the GI50 (A549) was 17.1 µM (inactive). For the same compound, the GI50 (ACHN) was 2.5 µM (inactive), the GI50 (BT-549) was 3.03 µM (inactive) and the GI50 (CAKI-1) was 3.6 µM (inactive). The GI50 (CCRF-CEM) was 1.88 µM (inactive), the GI50 (COLO 205) was 2.01 µM (inactive) and the GI50 (DU-145) was 6.71 µM (inactive). For the same compound, the GI50 (EKVX) was 3.57 µM (inactive), the GI50 (HCC 2998) was 3.1 µM (inactive) and the GI50 (HCT-15) was 1.83 µM. For the same compound, the GI50 (HL-60) was 0.631 µM (active), the GI50 (HOP-62) was 12.9 µM (inactive) and the GI50 (HOP-92) was 2.3 µM (inactive). The GI50 (HT-29) was 2.37 µM (inactive), the GI50 (Hs-578T) was 7.94 µM (inactive) and the GI50 (IGROV-1) was 2.92 µM (inactive). For the same compound, the GI50 (K562) was 1.93 µM (inactive), the GI50 (KM12) was 5.66 µM (inactive) and the GI50 (LOX IMVI) was 1.57 µM (inactive). The GI50 (M14) was 2.34 µM (inactive), the GI50 (MCF7) was 5.71 µM (inactive) and the GI50 (MDA-MB-231) was 2.79 µM (inactive). The GI50 (MDA-MB-435) was 2.13 µM (inactive), the GI50 (MDA-N) was 2.87 µM (inactive) and the GI50 (MOLT-4) was 2.2 µM (inactive). The GI50 (Malme-3M) was 2.24 µM (inactive), the GI50 (NCI-H226) was 5.53 µM (inactive) and the GI50 (NCI-H23) was 2.53 µM (inactive). The GI50 (NCI-H460) was 11.7 µM (inactive), the GI50 (NCI-H522) was 2.03 µM (inactive) and the GI50 (NCI/ADR-RES) was 3.32 µM (inactive). For the same compound, the GI50 (OVCAR-3) was 3.32 µM (inactive), the GI50 (OVCAR-4) was 2.31 µM (inactive) and the GI50 (OVCAR-5) was 10.7 µM (inactive). For the same compound, the GI50 (OVCAR-8) was 2.68 µM (inactive), the GI50 (PC-3) was 4.3 µM (inactive) and the GI50 (RPMI-8226) was 2.33 µM (inactive). For the same compound, the GI50 (RXF 393) was 2.14 µM (inactive), the GI50 (SF-268) was 3.71 µM (inactive) and the GI50 (SF-295) was 16.8 µM (inactive). For the same compound, the GI50 (SF-539) was 2.73 µM (inactive), the GI50 (SK-MEL-28) was 3.05 µM (inactive) and the GI50 (SK-MEL-2) was 5.82 µM (inactive). For the same compound, the GI50 (SK-MEL-5) was 2.8 µM (inactive), the GI50 (SK-OV-3) was 18.7 µM (inactive) and the GI50 (SN12C) was 2.72 µM (inactive). The GI50 (SNB-19) was 13 µM (inactive), the GI50 (SNB-75) was 4.92 µM (inactive) and the GI50 (SR) was 2.07 µM (inactive). The GI50 (SW-620) was 2.7 µM (inactive), the GI50 (T47D) was 4.11 µM (inactive) and the GI50 (TK-10) was 16.8 µM (inactive). For the same compound, the GI50 (U-251) was 2.93 µM (inactive), the GI50 (UACC-257) was 1.51 µM (inactive) and the GI50 (UACC-62) was 3.66 µM (inactive). The GI50 (UO-31) was 5.92 µM (inactive).
